Results from patent US5202315A, “Cephalosporin compounds” (Lucky, Ltd., priority 1989, dated 1993).
Converted amounts (≈) assume the structure as drawn. Like-named read-outs stand apart in the source and are kept apart here.

Assays:
[1] = tested on: Acinetobacter calcoaceticus ATCC 15473; assay: Antibacterial activity, MIC; type: cell-based; conditions: ATCC15473, ATCC 15473, agar two-fold dilution, 37° C., 20 hours, read-out: MIC
Description: (§1) Also, the in vitro antibacterial activity was determined by the by a two-fold dilution method as described below:
(§2) That is, the two-fold serial dilutions of the compound were made dispersed in Muller-Hinton agar medium. 2 μl of standard test strain which had the 10^7 CFU per ml was inoculated on the medium, and was incubated at 37° C. for 20 hours.

[2] = tested on: Bacillus cereus ATCC 11778; assay: Antibacterial activity, MIC; type: cell-based; conditions: ATCC11778, ATCC 11778, agar two-fold dilution, 37° C., 20 hours, read-out: MIC
Description: as §1, §2

[3] = tested on: Citrobacter freundii ATCC 8090; assay: Antibacterial activity, MIC; type: cell-based; conditions: ATCC8090, ATCC 8090, agar two-fold dilution, 37° C., 20 hours, read-out: MIC
Description: as §1, §2

[4] = tested on: Enterobacter aerogenes ATCC 29751; assay: Antibacterial activity, MIC; type: cell-based; conditions: Klebsiella aerogenes, ATCC29751; ATCC 29751; agar two-fold dilution, 37° C., 20 hours; read-out: MIC
Description: as §1, §2

[5] = tested on: Enterobacter cloacae ATCC 27508; assay: Antibacterial activity, MIC; type: cell-based; conditions: ATCC27508, ATCC 27508, agar two-fold dilution, 37° C., 20 hours, read-out: MIC
Description: as §1, §2

[6] = tested on: Escherichia coli ATCC 10536; assay: Antibacterial activity, MIC; type: cell-based; conditions: ATCC10536, agar two-fold dilution, 37° C., 20 hours
Description: as §1, §2

[7] = tested on: Escherichia coli ATCC 25922; assay: Antibacterial activity, MIC; type: cell-based; conditions: ATCC25922, agar two-fold dilution, 37° C., 20 hours
Description: as §1, §2

[8] = tested on: Klebsiella pneumoniae ATCC 10031; assay: Antibacterial activity, MIC; type: cell-based; conditions: ATCC10031, ATCC 10031, agar two-fold dilution, 37° C., 20 hours, read-out: MIC
Description: as §1, §2

[9] = tested on: Micrococcus luteus ATCC 9341; assay: Antibacterial activity, MIC; type: cell-based; conditions: ATCC9341, ATCC 9341, agar two-fold dilution, 37° C., 20 hours, read-out: MIC
Description: as §1, §2

[10] = tested on: Morganella morganii ATCC 8076h; assay: Antibacterial activity, MIC; type: cell-based; conditions: ATCC8076H, agar two-fold dilution, 37° C., 20 hours
Description: as §1, §2

[11] = tested on: Proteus mirabilis ATCC 25933; assay: Antibacterial activity, MIC; type: cell-based; conditions: ATCC25933, ATCC 25933, agar two-fold dilution, 37° C., 20 hours, read-out: MIC
Description: as §1, §2

[12] = tested on: Proteus vulgaris ATCC 6059; assay: Antibacterial activity, MIC; type: cell-based; conditions: ATCC6059, ATCC 6059, agar two-fold dilution, 37° C., 20 hours, read-out: MIC
Description: as §1, §2

[13] = tested on: Providencia rettgeri ATCC 9250; assay: Antibacterial activity, MIC; type: cell-based; conditions: ATCC9250, agar two-fold dilution, 37° C., 20 hours
Description: as §1, §2

[14] = tested on: Pseudomonas aeruginosa ATCC 10145; assay: Antibacterial activity, MIC; type: cell-based; conditions: ATCC10145, ATCC 10145, agar two-fold dilution, 37° C., 20 hours, read-out: MIC
Description: as §1, §2

[15] = tested on: Pseudomonas aeruginosa ATCC 25619; assay: Antibacterial activity, MIC; type: cell-based; conditions: ATCC25619, ATCC 25619, agar two-fold dilution, 37° C., 20 hours, read-out: MIC
Description: as §1, §2

[16] = tested on: Pseudomonas aeruginosa ATCC 27853; assay: Antibacterial activity, MIC; type: cell-based; conditions: ATCC27853, ATCC 27853, agar two-fold dilution, 37° C., 20 hours, read-out: MIC
Description: as §1, §2

[17] = tested on: Salmonella typhimurium ATCC 14028; assay: Antibacterial activity, MIC; type: cell-based; conditions: Salmonella enterica; ATCC 14028; agar two-fold dilution, 37° C., 20 hours; read-out: MIC
Description: as §1, §2

[18] = tested on: Serratia marcescens ATCC 27117; assay: Antibacterial activity, MIC; type: cell-based; conditions: ATCC27117, ATCC 27117, agar two-fold dilution, 37° C., 20 hours, read-out: MIC
Description: as §1, §2

[19] = tested on: Shigella flexneri ATCC 11836; assay: Antibacterial activity, MIC; type: cell-based; conditions: ATCC11836, agar two-fold dilution, 37° C., 20 hours
Description: as §1, §2

[20] = tested on: Shigella sonnei ATCC 11060; assay: Antibacterial activity, MIC; type: cell-based; conditions: ATCC11060, ATCC 11060, agar two-fold dilution, 37° C., 20 hours, read-out: MIC
Description: as §1, §2

[21] = tested on: Staphylococcus aureus ATCC 10537; assay: Antibacterial activity, MIC; type: cell-based; conditions: ATCC10537, ATCC 10537, agar two-fold dilution, 37° C., 20 hours, read-out: MIC
Description: as §1, §2

[22] = tested on: Staphylococcus aureus ATCC 6538p; assay: Antibacterial activity, MIC; type: cell-based; conditions: ATCC6538P, ATCC 6538p, agar two-fold dilution, 37° C., 20 hours, read-out: MIC
Description: as §1, §2

[23] = tested on: Staphylococcus epidermidis ATCC 12228; assay: Antibacterial activity, MIC; type: cell-based; conditions: ATCC12228, ATCC 12228, agar two-fold dilution, 37° C., 20 hours, read-out: MIC
Description: as §1, §2

[24] = tested on: Streptococcus faecalis ATCC 29212; assay: Antibacterial activity, MIC; type: cell-based; conditions: Enterococcus faecalis, ATCC29212; ATCC 29212; agar two-fold dilution, 37° C., 20 hours; read-out: MIC
Description: as §1, §2

[25] = In-vivo absorbency (plasma concentrations & pharmacokinetic parameters); parameters: species or system SD rat (male); conditions: plasma, SD male rat, iv 20 mg/kg; for concentration at 1 h: 60 min; for concentration at 1 h / concentration at 2 h: read-out: Plasma Conc.; for concentration at 2 h: 120 min; for AUC / half-life: two compartment model; for half-life: rat, iv, 20 mg/kg
From the text: The blood samples from the femoral vein of the rats were taken every hour after administration, and analyzed by bio-assay(agar well method).
Tested animal: SD male Rat (220~340 g)

[26] = as above; parameters: species or system SD rat (male); conditions: plasma, SD male rat, iv 20 mg/kg, read-out: Plasma Conc.

Row | SMILES | MIC [1] | MIC [2] | MIC [3] | MIC [4] | MIC [5] | MIC [6] | MIC [7] | MIC [8] | MIC [9] | MIC [10] | MIC [11] | MIC [12] | MIC [13] | MIC [14] | MIC [15] | MIC [16] | MIC [17] | MIC [18] | MIC [19] | MIC [20] | further results
1 | CCc1c(N)nc(SCC2=C(C(=O)[O-])N3C(=O)C(NC(=O)/C(=N\OC(C)(C)C(=O)O)c4csc(N)n4)C3SC2)[n+](C)c1N (stereo not drawn) [Compound I-31] | 8 mg/L (≈ 12.3 µM) | 128 mg/L (≈ 196 µM) | 0.13 mg/L (≈ 0.199 µM) | 2 mg/L (≈ 3.07 µM) | 0.016 mg/L (≈ 0.0245 µM) | 0.063 mg/L (≈ 0.0967 µM) | 0.13 mg/L (≈ 0.199 µM) | 0.063 mg/L (≈ 0.0967 µM) | 0.5 mg/L (≈ 0.767 µM) | ≤ 0.008 mg/L | 0.031 mg/L (≈ 0.0476 µM) | 0.063 mg/L (≈ 0.0967 µM) | ≤ 0.008 mg/L | 4 mg/L (≈ 6.14 µM) | 1 mg/L (≈ 1.53 µM) | 2 mg/L (≈ 3.07 µM) | 0.25 mg/L (≈ 0.384 µM) | 0.25 mg/L (≈ 0.384 µM) | 0.063 mg/L (≈ 0.0967 µM) | 0.063 mg/L (≈ 0.0967 µM) | MIC [21]: 4 mg/L (≈ 6.14 µM); MIC [22]: 4 mg/L (≈ 6.14 µM); MIC [23]: 2 mg/L (≈ 3.07 µM); MIC [24]: > 128 mg/L; concentration at 1 h [25]: 7.7 µg/mL; concentration at 2 h [25]: 1.6 µg/mL; AUC [25]: 30.5 µg·h/mL; half-life ([25]; read-out: T1/2 (α)): 6 min; half-life ([25]; read-out: T1/2 (β)): 27 min; concentration at 0.5 min [26]: 208 µg/mL; concentration at 2.5 min [26]: 85 µg/mL; concentration at 5 min [26]: 62 µg/mL; concentration at 10 min [26]: 45 µg/mL; concentration at 20 min [26]: 30 µg/mL; concentration at 40 min [26]: 14 µg/mL
2 | CC[n+]1c(SCC2=C(C(=O)[O-])N3C(=O)C(NC(=O)/C(=N\OC(C)(C)C(=O)O)c4csc(N)n4)C3SC2)nc(N)c(C)c1N (stereo not drawn) [Compound I-32] | 8 mg/L (≈ 12.3 µM) | 64 mg/L (≈ 98.2 µM) | 0.13 mg/L (≈ 0.199 µM) | 2 mg/L (≈ 3.07 µM) | 0.016 mg/L (≈ 0.0245 µM) | 0.13 mg/L (≈ 0.199 µM) | 0.13 mg/L (≈ 0.199 µM) | 0.063 mg/L (≈ 0.0967 µM) | 0.25 mg/L (≈ 0.384 µM) | ≤ 0.008 mg/L | 0.031 mg/L (≈ 0.0476 µM) | 0.063 mg/L (≈ 0.0967 µM) | ≤ 0.008 mg/L | 4 mg/L (≈ 6.14 µM) | 2 mg/L (≈ 3.07 µM) | 2 mg/L (≈ 3.07 µM) | 0.25 mg/L (≈ 0.384 µM) | 0.13 mg/L (≈ 0.199 µM) | 0.031 mg/L (≈ 0.0476 µM) | 0.13 mg/L (≈ 0.199 µM) | MIC [21]: 2 mg/L (≈ 3.07 µM); MIC [22]: 4 mg/L (≈ 6.14 µM); MIC [23]: 1 mg/L (≈ 1.53 µM); MIC [24]: > 128 mg/L; concentration at 1 h [25]: 7.5 µg/mL; concentration at 2 h [25]: 1.8 µg/mL; AUC [25]: 30.5 µg·h/mL; half-life ([25]; read-out: T1/2 (α)): 3 min; half-life ([25]; read-out: T1/2 (β)): 29 min; concentration at 0.5 min [26]: 162 µg/mL; concentration at 2.5 min [26]: 75 µg/mL; concentration at 5 min [26]: 53 µg/mL; concentration at 10 min [26]: 35 µg/mL; concentration at 20 min [26]: 21 µg/mL; concentration at 40 min [26]: 13 µg/mL
3 | CCc1c(N)nc(SCC2=C(C(=O)[O-])N3C(=O)C(NC(=O)/C(=N\OC(C)(C)C(=O)O)c4csc(N)n4)C3SC2)[n+](CC)c1N (stereo not drawn) [Compound I-33] | 16 mg/L (≈ 24 µM) | 128 mg/L (≈ 192 µM) | 0.13 mg/L (≈ 0.195 µM) | 4 mg/L (≈ 6.01 µM) | 0.031 mg/L (≈ 0.0466 µM) | 0.13 mg/L (≈ 0.195 µM) | 0.13 mg/L (≈ 0.195 µM) | 0.13 mg/L (≈ 0.195 µM) | 0.5 mg/L (≈ 0.751 µM) | ≤ 0.008 mg/L | 0.063 mg/L (≈ 0.0946 µM) | 0.13 mg/L (≈ 0.195 µM) | ≤ 0.008 mg/L | 4 mg/L (≈ 6.01 µM) | 2 mg/L (≈ 3 µM) | 2 mg/L (≈ 3 µM) | 0.5 mg/L (≈ 0.751 µM) | 0.5 mg/L (≈ 0.751 µM) | 0.063 mg/L (≈ 0.0946 µM) | 0.25 mg/L (≈ 0.375 µM) | MIC [21]: 4 mg/L (≈ 6.01 µM); MIC [22]: 4 mg/L (≈ 6.01 µM); MIC [23]: 2 mg/L (≈ 3 µM); MIC [24]: > 128 mg/L; concentration at 1 h [25]: 7 µg/mL; concentration at 2 h [25]: 1.2 µg/mL; AUC [25]: 30.5 µg·h/mL; half-life ([25]; read-out: T1/2 (α)): 2 min; half-life ([25]; read-out: T1/2 (β)): 24 min; concentration at 0.5 min [26]: 194 µg/mL; concentration at 2.5 min [26]: 79 µg/mL; concentration at 5 min [26]: 55 µg/mL; concentration at 10 min [26]: 36 µg/mL; concentration at 20 min [26]: 21 µg/mL; concentration at 40 min [26]: 13 µg/mL
